Measurements from US6565891B1, “Nutritional supplement for children” (Tsar Health Private Ltd., priority 2002, dated 2003).

Key:
[1] = in vivo; cited from earlier work
Interleukin-2 = experiment: Zinc dose response: interleukin-2; assay type: in vivo, human; settings: children age 4-12 years, median (standard deviation)
Experimental: (§1) The basic concept underlying the assessment of the most optimum nutrient amounts for a given age group uses the principle of“dose-response curves”. At least four groups of individuals were provided with various amounts of a given nutrient and their immune responses were measured using established and accepted techniques. The amount of a nutrient that gave the best response was considered the optimum amount. Dose response curves were determined for all vitamins and trace elements considered essential for human health, particularly immunity.
(§2) The ratio of radioactivity in the test samples divided by radioactivity in control samples gave the “stimulation response” shown in FIGS. 1 and 2.

Antibody response = experiment: Zinc dose response: antibody response; assay type: in vivo, human; settings: children age 4-12 years
Experimental: as §1, §2

Thymulin activity = experiment: Zinc dose response: thymulin activity; assay type: in vivo, human; settings: children age 4-12 years
Experimental: as §1, §2

blood lymphocytes = experiment: Zinc dose response: lymphocyte response to PHA (stimulation index); assay type: in vivo, human; settings: children age 4-12 years, diet zinc 5 mg, median (standard deviation)
Experimental: as §1
Data for the dose response curve for zinc in a group of 4 to 12 year old children is shown in FIGS. 1 and 2, with the total amount of zinc taken is shown for each group. To determine the magnitude of immune response, an aliquot of blood was withdrawn from each subject in the study, blood lymphocytes were separated, washed and mixed with the mitogen phytohemagglutinin (PHA) in previously determined optimum amount. The optimum amount of PHA used in the experiments was predetermined by a set of dose response curves using lymphocytes of a healthy donor and four different concentrations of PHA. After culture in a sterile environment for 72 hours, the cells were washed and mixed with radioactive thymidine. The same steps were undertaken in a control sample in which only the culture medium was used, not PHA. The cells were washed and radioactivity determined.
as §2

SMILES	biologic half-life in the body [1]	Interleukin-2 (Interleukin-2; 7 mg supplemental zinc)	Interleukin-2 (Interleukin-2; 20 mg supplemental zinc)	Interleukin-2 (Interleukin-2; 50 mg supplemental zinc)	Antibody response (median reciprocal titre) (Antibody response; 7 mg supplemental zinc)	Antibody response (median reciprocal titre) (Antibody response; 20 mg supplemental zinc)	Antibody response (median reciprocal titre) (Antibody response; 50 mg supplemental zinc)	Thymulin activity (median reciprocal titre) (Thymulin activity; 7 mg supplemental zinc)	Thymulin activity (median reciprocal titre) (Thymulin activity; 20 mg supplemental zinc)	Thymulin activity (median reciprocal titre) (Thymulin activity; 50 mg supplemental zinc)	Lymphocyte response to PHA (stimulation index) (blood lymphocytes; 7 mg supplemental zinc)	Lymphocyte response to PHA (stimulation index) (blood lymphocytes; 20 mg supplemental zinc)	Lymphocyte response to PHA (stimulation index) (blood lymphocytes; 50 mg supplemental zinc)
Cc1ncc(C[n+]2csc(CCO)c2C)c(N)n1 [Thiamin]	about 15 days												
[Zn] [zinc]		16(2.0) units/ml	11(1.5) units/ml	8(1.3) units/ml	318	129	73	216	187	166	86(11)	54(9)	41(8)
